From patent US10787442B2, “Modulators of indoleamine 2,3-dioxygenase” (GLAXOSMITHKLINE INTELLECTUAL PROPERTY DEVELOPMENT LIMITED, priority 2016, dated 2020)
Like-named read-outs stand apart in the source and are kept apart here.

How the values were obtained:
[1] = tested on: human peripheral blood mononuclear cells (PBMC); experiment: PBMC cytotoxicity assay (CellTiter-Glo); type: cell-based; conditions: cytotoxicity in stimulated PBMC, recorded as pCC50
ePL tagged IDO1 = target: T1, ePL tagged IDO1 (Homo sapiens, UniProt P14902); experiment: CETSA (Cellular Thermal Shifting assay); type: binding; conditions: Hela cells, 3 hours at 37° C., heated at 53° C. for 3 min
T1 construct: expressed in transfected cells; host or cells: HeLa cells transduced with BacMam virus
Description: Cellular Thermal Shifting assays were used to directly monitor the ligand binding to target proteins in cells. Hela cells were transduced with BacMam virus expressing ePL tagged IDO1 overnight. The cells were then plated over the compounds for 3 hours at 37° C. in cell culture medium containing 1% FBS. The plates were then sealed and heated at 53° C. for 3 min. InCell Hunter reagents were added and luminescence was read in 90 min.

[2] = target: indoleamine 2, 3-dioxygenase (IDO1) (Homo sapiens, UniProt P14902); experiment: IDO1 HeLa RapidFire MS Assay (kynurenine by mass spectrometry); type: cell-based; conditions: HeLa cells stimulated with IFN-γ, 2 days; recorded as pIC50; read-out: IDO1 HeLa PXC50 (converted)
Description: IDO1 HeLa RapidFire MS Assay
(§1) Compounds of the present invention were tested via high-throughput cellular assays utilizing detection of kynurenine via mass spectrometry and cytotoxicity as end-points. […] Compounds with IDO1 inhibitory properties decreased the amount of kynurenine produced by the cells via the tryptophan catabolic pathway. Cellular toxicity due to the effect of compound treatment was measured using CellTiter-Glo® reagent (CTG) (Promega Corporation, Madison, Wis.), which is based on luminescent detection of ATP, an indicator of metabolically active cells.
(§2) In preparation for the assays, test compounds were serially diluted 3-fold in DMSO from a typical top concentration of 1 mM or 5 mM and plated at 0.5 μL in 384-well, polystyrene, clear bottom, tissue culture treated plates with lids (Greiner Bio-One, Kremsmünster, Austria) to generate 11-point dose response curves. Low control wells (0% kynurenine or 100% cytotoxicity) contained either 0.5 μL of DMSO in the presence of unstimulated (−IFN-γ) HeLa cells for the mass spectrometry assay or 0.5 μL of DMSO in the absence of cells for the cytotoxicity assay, and high control wells (100% kynurenine or 0% cytotoxicity) contained 0.5 μL of DMSO in the presence of stimulated (+IFN-γ) HeLa cells for both the mass spectrometry and cytotoxicity assays.
(§3) Frozen stocks of HeLa cells were washed and recovered in DMEM high glucose medium with HEPES (Thermo Fisher Scientific, Inc., Waltham, Mass.) supplemented with 10% v/v certified fetal bovine serum (FBS) (Thermo Fisher Scientific, Inc., Waltham, Mass.), and 1× penicillin-streptomycin antibiotic solution (Thermo Fisher Scientific, Inc., Waltham, Mass.). The cells were diluted to 100,000 cells/mL in the supplemented DMEM medium. 50 μL of either the cell suspension, for the mass spectrometry assay, or medium alone, for the cytotoxicity assay, were added to the low control wells, on the previously prepared 384-well compound plates, resulting in 5,000 cells/well or 0 cells/well respectively. IFN-γ was added to the remaining cell suspension at a final concentration of 10 nM, and 50 μL of the stimulated cells were added to all remaining wells on the 384-well compound plates. The plates, with lids, were then placed in a 37° C., 5% CO2 humidified incubator for 2 days.
(§4) Following incubation, the 384-well plates were removed from the incubator and allowed to equilibrate to room temperature for 30 minutes. For the cytotoxicity assay, CellTiter-Glo® was prepared according to the manufacturer's instructions, and 10 μL were added to each plate well. After a twenty minute incubation at room temperature, luminescence was read on an EnVision® Multilabel Reader (PerkinElmer Inc., Waltham, Mass.). For the mass spectrometry assay, 10 μL of supernatant from each well of the compound-treated plates were added to 40 μL of acetonitrile, containing 10 μM of an internal standard for normalization, in 384-well, polypropylene, V-bottom plates (Greiner Bio-One, Kremsmünster, Austria) to extract the organic analytes. Following centrifugation at 2000 rpm for 10 minutes, 10 μL from each well of the acetonitrile extraction plates were added to 90 μL of sterile, distilled H2O in 384-well, polypropylene, V-bottom plates for analysis of kynurenine and the internal standard on the RapidFire 300 (Agilent Technologies, Santa Clara, Calif.) and 4000 QTRAP MS (SCIEX, Framingham, Mass.). MS data were integrated using Agilent Technologies' RapidFire Integrator software, and data were normalized for analysis as a ratio of kynurenine to the internal standard.

[3] = tested on: human epithelial HeLa cells; experiment: HeLa cytotoxicity assay (CellTiter-Glo); type: cell-based; conditions: cytotoxicity in stimulated HeLa cells, recorded as pCC50
Description: as §1, §2, §3, §4

PAN02 pancreatic cells = conditions: cited from earlier work
[4] = first value, read-out: pXC50_1 (converted)
[5] = second value, read-out: pXC50_2 (converted)

T1 sequence (P14902 whole entry): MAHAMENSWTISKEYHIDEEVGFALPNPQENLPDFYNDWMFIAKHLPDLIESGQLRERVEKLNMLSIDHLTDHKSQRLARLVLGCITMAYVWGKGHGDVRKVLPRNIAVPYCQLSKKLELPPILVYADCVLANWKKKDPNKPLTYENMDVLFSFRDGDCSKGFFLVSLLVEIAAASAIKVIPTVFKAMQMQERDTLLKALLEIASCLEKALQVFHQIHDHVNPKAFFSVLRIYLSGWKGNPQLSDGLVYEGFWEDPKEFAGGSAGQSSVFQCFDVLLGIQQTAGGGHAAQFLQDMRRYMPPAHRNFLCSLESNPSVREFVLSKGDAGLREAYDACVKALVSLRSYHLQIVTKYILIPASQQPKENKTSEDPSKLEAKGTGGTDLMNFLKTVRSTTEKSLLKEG
Sequence of indoleamine 2, 3-dioxygenase (IDO1) (P14902 whole entry): as above

| EC50 (ePL tagged IDO1; [4]) [nM] | EC50 (ePL tagged IDO1; [5]) [nM] | IC50 [2] [nM] | SMILES | PBMC_TOX PXC50 [1] | HELA_IDO1_TOX_PXC50 [3] | effect against the same tumor (PAN02 pancreatic cells; immune-deficient mice) | inhibition of tumor growth (PAN02 pancreatic cells; immunocompetent mice, orally dosed) |
| --- | --- | --- | --- | --- | --- | --- | --- |
| 5010 | 3090 |  | CC(C)CN(c1ncc([C@H](C)CC(=O)O)cc1Nc1ccc(C#N)cn1)C1CCOCC1 [Example 57, (3R)-3-{5-[(5-cyanopyridin-2-yl)amino]-6-[(2-methylpropyl)(oxan-4-yl)amino]pyridin-3-yl}butanoic acid] | <5.0 |  |  |  |
| 162 | 186 | 10 | CC(C)CN(c1ncc([C@H](C)CC(=O)O)cc1Nc1nc(C(F)(F)F)ns1)C1CCOCC1 [Example 3, (R)-3-(6-(isobutyl(tetrahydro-2H-pyran-4-yl)amino)-5-((3-(trifluoromethyl)-1,2,4-thiadiazol-5-yl)amino)pyridin-3-yl)butanoic acid] | <5.0 | <5 |  |  |
|  |  |  | NS(=O)(=O)NCCNc1nonc1C(=NO)Nc1ccc(F)c(Br)c1 [INCB204360] |  |  | without effect | significant dose-dependent inhibition of tumor growth |
